Reference: EP0472304A2, “Pharmaceutical compositions containing therapeutically active organosilane derivatives and process for preparing same” (Richter Gedeon Vegyészeti Gyár R.T., priority 1990, dated 1992)
Marks after values point to notes of the source that are not given here.

How the values were obtained:
Straub's tail = Straub's tail test (morphine-induced); assay type: in vivo, male OF-1 mice; settings: Mus musculus, ip; mice, i.p., pretreatment 20 min before reading; 60 mg/kg i.p. morphine hydrochloride
Description: Method 2: Straub's tail test
The method of Novack [Drug Development Res. 2, 383 (1982)] was used with a slight modification. Groups consisting of 10 male OF-1 mice each weighing 19 to 21 g were intraperitoneally treated with 60 mg/kg of morphine hydrochloride. The formation of Straub's tail was judged 15 minutes after the morphine treatment. This was considered to be positive when the animal kept his tail permanently upwards at an angle being steeper than 45°. A pretreatment was carried out with various doses of the compound to be tested 20 minutes before the time of reading. The ED50 value, i.e. the dose inhibiting the positive response in 50% of the animals, was calculated by using the method of Litchfield and Wilcoxon.
(The above author found a good relation between the activity shown in the above test and the clinical effectivity of central muscle relaxants.)

flexor reflex = test: Investigation of the flexor reflex on anaesthetized cats; assay type: in vivo; settings: chloralose-anaesthetized cats
Description: Method 3: Investigation of the flexor reflex on anaesthetized cats
Chloralose-anaesthetized cats of both sexes weighing 2.2-5.4 kg each were used in these experiments. The flexor reflex of the animals was studied by using the quantitative electromyographic method of Farkas et al [Pharmacol. Res. Comm. 20, Suppl. 1, 141 (1988)].
The results summarized in Table 1 are the values calculated from the average results of 4 to 8 experiments. The duration of effect was characterized by the time passing from the administration of this dose until the return to 75% of the control value (T75%).
The pharmacological activities of the compounds showing the most prominent effects together with the activity of tolperisone used as reference drug are shown in Table 1.

[1] = test system: GYKI-20039-induced tremor; test: Test on the GYKI-20039-induced tremor; assay type: in vivo, male CFLP mice; settings: Mus musculus, iv; mice, pretreatment time 0 min; dose causing 50% inhibition of tremor induced by 10 mg/kg i.p. GYKI-20039
Description: Method 1: Test on the GYKI-20039-induced tremor
Groups consisting of 10 to 20 male CFLP mice each weighing 19 to 21 g were intraperitoneally (i.p.) treated with 10 mg/kg of GYKI-20039 (test substance). Similarly to the structurally related compound of code number LON-954, GYKI-20039 induces a tremor on mice which is considered as the experimental model of the Parkinson's disease [Coward et al., Psychopharmacology 52, 165 (1977); Andrasi et al. IX Internat. Congress of Neuropathology, 1-98, 209, Vienna 1982]. The tremor induced by GYKI-20039 reaches a maximum strength 4 to 8 minutes following administration of the test substance, then it continuously diminishes and is finished within about 1 hour. According to our experiences obtained on ten known central muscle relaxants, this tremor can be inhibited by central muscle relaxants in a dose-dependent manner and is useful for the assay (evaluation) of the central muscle relaxant effects. After administration of the test substance, the mice were suspended on an isometric dynamometer in a light plastic box and the strength of the tremor was measured and quantified by electronic integration. The tremor strength of the mice was averaged in the 4th-8th minutes after treatment with the test substance.
The animals were pretreated with various doses of the muscle relaxants to be tested before the treatment with the test substance. […]

[2] = 10 mg/kg i.v., time until return to 75% of the control value

SMILES	ED50 (Straub's tail)	Duration of effect T75% (flexor reflex; i.v., the effect of 5 mg/kg was investigated)	Duration of effect T75% (flexor reflex; [2])	ED50 [1]
C[Si](C)(CN1CCCCC1)c1ccccc1.O=C(O)/C=C/C(=O)O [Compound 1, N-[(dimethyl-phenylsilyl)methyl]piperidine fumarate]	30.7 mg/kg			
C[Si](C)(CN1CCCC1)c1ccccc1.Cl [Compound 3, N-[(dimethyl-phenylsilyl)methyl]pyrrolidine hydrochloride]	37.7 mg/kg	50** min		
C[Si](C)(CN1CCCCC1)c1ccc(F)cc1.O=C(O)/C=C/C(=O)O [Compound 4, N-([dimethyl-(4-fluorophenyl)silyl]methyl)piperidine fumarate]	19.1 mg/kg		180 min	
C[Si](C)(CN1CCCCC1)c1ccc(F)cc1.Cl [Compound 5, N-([dimethyl-(4-fluorophenyl)silyl]methyl)piperidine hydrochloride]	17.8 mg/kg		> 180 min	
C[Si](C)(CN1CCCC1)c1ccc(F)cc1.Cl [Compound 6, N-([dimethyl-(4-fluorophenyl)silyl]methyl)pyrrolidine hydrochloride]	26.9 mg/kg		> 180 min	
Cc1ccc(C(=O)C(C)CN2CCCCC2)cc1 (stereo not drawn) [Tolperisone, tolperisone, reference compound]	63 mg/kg		50 min	10.2 mg/kg
